Results on 33 compounds are retold here after patent publication US6670382B2, “Hydroxyformamidine derivatives and medicines containing the same” (Taisho Pharmaceutical Co., Ltd., priority 2000, dated 2003).

Molecules are shown by their SMILES.

For the assay, the system named is 20-HETE synthase derived from rat kidney microsome. Kind of assay: Inhibitory effect of 20-HETE synthase derived from rat kidney microsome. As to conditions: SHR rat kidney microsome; for IC50: concentration at which 20-HETE production was inhibited to 50%; for Inhibition (1 µM): inhibition rate of 20-HETE production, subject compound 1 μM, 3H-arachidonic acid, NADPH, 1.5 hours at 37° C., pH 7.4. The format is biochemical. On the procedure:
[Inhibitory Effect of 20-HETE Synthase Derived from Rat Kidney Microsome]
Regarding the compounds listed in the Table described above, their inhibitory activities on production of 20-HETE were examined.
This examination was carried out based on the method described in J. Pharmacol. Exp. Ther., Vol. 268, p. 474 (1994).
The subject compound in an amount of 1 μM was added to a 50 mM of 3-morpholinopropanesulfonic acid buffer (MOPS) (pH 7.4), containing 5 mM of magnesium chloride, and 1 mM of ethylenediaminetetraacetic acid (EDTA) disodium salt.
Subsequently, the rat kidney microsome fraction prepared from the kidney of a spontaneously hypertensive rat (male, 6 weeks of age) as an enzyme, [5,6,8,9,11,12,14,15] tritium-arachidonic acid (supplied by Amasham) as a substrate, and NADPH (supplied by Sigma) as a coenzyme were added, and were reacted for 1.5 hours at 37° C.
After the reaction was quenched by adding formic acid (supplied by Wako Pure Chemical Industries Ltd.) to the reaction solution, acetonitrile (final concentration of 50%) was added thereto, and the mixture was allowed to stand for 1.5 hours at room temperature. The amount of 20-HETE production was measured by using a high performance liquid chromatography having a detector for radioactive substances (supplied by Gilson), equipped with an ODS column (Biocyl C18, supplied by Bio-rad).
Setting an amount of 20-HETE production to 100% when no subject compound was added, the inhibition rate (%) was calculated from the amount of 20-HETE production when a subject compound was added.
In addition, setting an amount of 20-HETE production to 100% when no subject compound was added, the concentration of the subject compound at which the production of the 20-HETE was inhibited to 50% when the subject compound is added (IC50 value) was also calculated.

One may read the IC50 as the concentration that gives 50% inhibition. Low readings indicate greater potency, high ones weaker potency. As to `O/N=C/Nc1ccc(OCc2ccco2)nc1` [Comp. 3], the IC50 came to 49.6 nM and the “Inhibition (1 µM)” value is recorded as 102.0%.
Consider `O/N=C/Nc1ccc(OCC2CCCCC2)nc1` [Comp. 11], for which the IC50 worked out at 2.7 nM and the “Inhibition (1 µM)” value is 89.0%.
On the same counts, the results for `COCCOCCOc1ccc(N/C=N/O)cn1` [Comp. 12] are 87.2 nM and 99.0%.
The like results for `CC1(C)OCC(COc2ccc(N/C=N/O)cn2)O1` (centres unmarked) [Comp. 13] were, in that order, 24 nM and 101.0%.
On the same counts, the results for `O/N=C/Nc1ccc(OCCCc2ccccc2)nc1` [Comp. 14] are 1.5 nM and 104.0%.
Consider `O/N=C/Nc1ccc(OCc2cccs2)nc1` [Comp. 15], for which the IC50 was 9.3 nM and the “Inhibition (1 µM)” value is reported as 100.0%.
On to `CCN(CC)CCOc1ccc(N/C=N/O)cn1` [Comp. 16], for which the “Inhibition (1 µM)” value came out at 60.0%.
Take `Cc1ncsc1CCOc1ccc(N/C=N/O)cn1` [Comp. 17]: inhibition was half-maximal at 2.1 nM (IC50) and the “Inhibition (1 µM)” value turned out to be 100.0%.
On to `CC(C)=CCOc1ccc(N/C=N/O)cn1` [Comp. 18], for which the “Inhibition (1 µM)” value amounted to 86.0%.
Same read-out and setting: under `CC(C)OCCOc1ccc(N/C=N/O)cn1` [Comp. 19] stands 104.0%; under `C#CCCOc1ccc(N/C=N/O)cn1` [Comp. 20], 31.0%.
For `O/N=C/Nc1ccc(OCC2CC2)nc1` [Comp. 21], the “Inhibition (1 µM)” value was 73.0%.
Turning to `O/N=C/Nc1ccc(OCCC2CCCCC2)nc1` [Comp. 22], the IC50 is 2.1 nM and the “Inhibition (1 µM)” value stood at 108.0%.
On the same counts, the results for `O/N=C/Nc1ccc(OCc2ccncc2)nc1` [Comp. 23] are 3.9 nM and 104.0%.
In the case of `O/N=C/Nc1ccc(OCCSc2ccccn2)nc1` [Comp. 25], the concentration for half-maximal inhibition (IC50) came to 9.6 nM and the “Inhibition (1 µM)” value came to 71.0%.
On the same counts, the results for `O/N=C/Nc1ccc(OCC2CCC2)nc1` [Comp. 26] are 27.2 nM and 99.0%.
`O/N=C/Nc1ccc(OCCOC2CCCCC2)nc1` [Comp. 27]: the “Inhibition (1 µM)” value is 71.0%.
As to `CCSCCOc1ccc(N/C=N/O)cn1` [Comp. 28], 9.9 nM corresponded to half-maximal inhibition (IC50) and the “Inhibition (1 µM)” value worked out at 105.0%.
Regarding `O/N=C/Nc1ccc(OCCCCC2CCCCC2)nc1` [Comp. 29], the “Inhibition (1 µM)” value was found to be 101.0%.
Same read-out and setting: under `CC(C)(C)CCOc1ccc(N/C=N/O)cn1` [Comp. 30] stands 102.0%.
`O/N=C/Nc1ccc(OCCCc2cccnc2)nc1` [Comp. 33]: the IC50 turned out to be 2.1 nM and the “Inhibition (1 µM)” value is reported as 93.0%.
On the same counts, the results for `CC1(C)COC(CCOc2ccc(N/C=N/O)cn2)OC1` [Comp. 34] are 7.6 nM and 89.0%.
Take `O/N=C/Nc1ccc(OCC2CC3CCC2C3)nc1` (centres unmarked) [Comp. 35]: the “Inhibition (1 µM)” value came to 98.0%.
As to `O/N=C/Nc1ccc(OCCCOc2ccccc2)nc1` [Comp. 36], 2.7 nM corresponded to half-maximal inhibition (IC50) and the “Inhibition (1 µM)” value came out at 104.0%.
On the same counts, the results for `O/N=C/Nc1ccc(OCCCc2ccncc2)nc1` [Comp. 37] are 3.4 nM and 96.0%.
The like results for `O/N=C/Nc1ccc(OCc2ccsc2)nc1` [Comp. 38] were, in that order, 8.5 nM and 95.0%.
`CC(C)(C)COc1ccc(N/C=N/O)cn1` [Comp. 39]: the “Inhibition (1 µM)” value worked out at 62.0%.
Regarding `O/N=C/Nc1ccc(OCc2ccoc2)nc1` [Comp. 40], the “Inhibition (1 µM)” value is 86.0%.
For `Cc1cccc(COc2ccc(N/C=N/O)cn2)n1` [Comp. 41], the “Inhibition (1 µM)” value came to 83.0%.
With `CCCCCCOc1ccc(N/C=N/O)cn1` [Comp. 42], the “Inhibition (1 µM)” value is reported as 105.8%.
Same read-out and setting: under `CCCCCCCOc1ccc(N/C=N/O)cn1` [Comp. 43] stands 89.5%.
The same measure, in the same setting: under `CCCCCCCCOc1ccc(N/C=N/O)cn1` [Comp. 44] stands 100.7%; under `CCC(C)CCOc1ccc(N/C=N/O)cn1` (centres unmarked) [Comp. 48], 102.8%.
